In PMC7157764, “Avoiding Drug Resistance by Substrate Envelope-Guided Design: Toward Potent and Robust HCV NS3/4A Protease Inhibitors” (mBio, 2020):

Columns and labels:
[1] = target: T1, HCV NS3/4A protease GT1a WT (Hepatitis C virus genotype 1a, UniProt P27958, C1185S); type: biochemical; settings: for Ki: 2 nM protease preincubated 1 h at room temperature with inhibitor, pH 7.5, 200 nM fluorogenic substrate, Morrison equation global fit, error from global fit of at least three replicates; for Fold increase in potency against WT compared with the parent compound: relative to parent compound, WT protease
T1 construct: His tag (cleaved yes); made in house; host or cells: Escherichia coli BL21(DE3), pET28a
T1 sequence (P27958 1027-1208 C1185S): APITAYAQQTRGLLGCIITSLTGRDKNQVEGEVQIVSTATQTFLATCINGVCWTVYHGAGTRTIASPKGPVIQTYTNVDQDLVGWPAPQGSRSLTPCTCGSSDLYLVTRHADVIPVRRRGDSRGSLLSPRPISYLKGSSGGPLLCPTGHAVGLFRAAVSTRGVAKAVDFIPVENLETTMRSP

[2] = target: T2, HCV NS3/4A protease D168A variant (Hepatitis C virus genotype 1a, UniProt P27958, C1185S/D1194A); type: biochemical; settings: for Ki: 2 nM protease preincubated 1 h at room temperature with inhibitor, pH 7.5, 200 nM fluorogenic substrate, Morrison equation global fit, error from global fit of at least three replicates
T2 construct: His tag (cleaved yes); made in house; host or cells: Escherichia coli BL21(DE3), pET28a
T2 sequence (P27958 1027-1208 C1185S/D1194A): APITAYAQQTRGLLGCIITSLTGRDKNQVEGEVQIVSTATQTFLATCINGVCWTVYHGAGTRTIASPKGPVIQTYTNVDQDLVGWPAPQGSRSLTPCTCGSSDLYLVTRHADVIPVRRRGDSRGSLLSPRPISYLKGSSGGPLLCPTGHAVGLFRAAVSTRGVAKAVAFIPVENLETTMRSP

[3] = test system: HCV NS3/4A protease D168A variant; type: biochemical, Hepatitis C virus genotype 1a

Row | SMILES | Ki [1] | Ki [2] | Fold change of Ki, D168A relative to WT [3] | Fold increase in potency against D168A compared with the parent compound [2] | Fold increase in potency against WT compared with the parent compound [1] | Fold increase in potency against D168A compared with grazoprevir [2]
1 | CCc1nc2ccc(OC)cc2nc1O[C@@H]1C[C@H]2C(=O)N[C@]3(C(=O)NS(=O)(=O)C4CC4)C[C@H]3/C=C\CCCCC[C@H](NC(=O)OC(C)(C)C)C(=O)N2C1 [5172-mcP1P3, reference compound] | 3.29 ± 0.52 nM | 82.4 ± 4.4 nM | – | – | – | –
2 | COc1ccc2nc(C)c(O[C@@H]3C[C@H]4C(=O)N[C@]5(C(=O)NS(=O)(=O)C6(C)CC6)C[C@H]5/C=C\CCCCC[C@H](NC(=O)OC5(C)CC5)C(=O)N4C3)nc2c1 [P4-1] | 4.44 ± 0.3 nM | 27.9 ± 4.1 nM | 6 fold | ~2 fold | – | –
3 | COc1ccc2nc(C)c(O[C@@H]3C[C@H]4C(=O)N[C@]5(C(=O)NS(=O)(=O)C6(C)CC6)C[C@H]5/C=C\CCCCC[C@H](NC(=O)OC5(C)CCC5)C(=O)N4C3)nc2c1 [P4-2] | 1.4 ± 0.13 nM | 46.4 ± 3.4 nM | 33 fold | – | 4 fold | –
4 | CCC1(OC(=O)N[C@H]2CCCCC/C=C\[C@@H]3C[C@@]3(C(=O)NS(=O)(=O)C3(C)CC3)NC(=O)[C@@H]3C[C@@H](Oc4nc5cc(OC)ccc5nc4C)CN3C2=O)CCCC1 [P4-5] | 1.29 ± 0.05 nM | 21.7 ± 2.3 nM | 17 fold | – | – | –
5 | COc1ccc2nc(C)c(O[C@@H]3C[C@H]4C(=O)N[C@]5(C(=O)NS(=O)(=O)C6(C)CC6)C[C@H]5/C=C\CCCCC[C@H](NC(=O)OC5CCCCC5)C(=O)N4C3)nc2c1 [P4-6] | 0.94 ± 0.25 nM | 12.7 ± 1.2 nM | 14 fold | – | – | –
6 | COc1ccc2nc(C)c(O[C@@H]3C[C@H]4C(=O)N[C@]5(C(=O)NS(=O)(=O)C6(C)CC6)C[C@H]5/C=C\CCCCC[C@H](NC(=O)OC5C[C@@H]6C[C@@H]6C5)C(=O)N4C3)nc2c1 (stereo partly shown) [P4-7] | 0.54 ± 0.2 nM | 2.3 ± 0.7 nM | 4 fold | ~20 fold | approximately 6.5 fold | ~20 fold
7 | COC(=O)N[C@H](C(=O)N[C@H]1CCCCC/C=C\[C@@H]2C[C@@]2(C(=O)NS(=O)(=O)C2(C)CC2)NC(=O)[C@@H]2C[C@@H](Oc3nc4cc(OC)ccc4nc3C)CN2C1=O)C(C)C [P4P5-1B] | 13 ± 0.8 nM | 102 ± 6.8 nM | 8 fold | – | – | –
8 | COC(=O)NC1(C(=O)N[C@H]2CCCCC/C=C\[C@@H]3C[C@@]3(C(=O)NS(=O)(=O)C3(C)CC3)NC(=O)[C@@H]3C[C@@H](Oc4nc5cc(OC)ccc5nc4C)CN3C2=O)CCCC1 [P4P5-5] | 31 ± 2.74 nM | 931 ± 70 nM | 30 fold | – | – | –
